This is an account of results in patent US20260337209A1, “BORON-CAPPED CLATHROCHELATE AND MACROCYCLIC LIGANDS AND METAL COMPLEXES THEREOF” (UVic Industry Partnerships Inc., priority 2022, published 2026).

Counter-ions that a name gives are not always drawn.

Holding throughout (format): physicochemical
A short description of data set [1]: solubility in solvents. As to conditions: for solubility in acetone: solvent acetone.
A short description of data set [2]: CV (cyclic voltammetry) in dry CH3CN. As to conditions: 0.1 M NBu^n4^+PF6^−. The method, then: Mauve powder. Yield: 92% (based on formula). Mp. dec. 315° C. ^1H NMR (300 MHz, dmso-d6, 298 K): δ 80.0 (1H relative int., v1/2=450 Hz), 77.9 (1H, v1/2=50 Hz), 53.1 (2H, v1/2=480 Hz), 46.8 (2H, v1/2=450 Hz), 39.4 (2H and 1H overlap, broad and sharp resonances), 21.8 and 19.5 (2H each, broad and overlapping), 13.0 (1H, v1/2=400 Hz), −2.0 (1H, v1/2=350 Hz), −4.2 (1H, v1/2=350 Hz), […] (2H, v1/2=450 Hz), −8.6 (1H, v1/2=40 Hz), −28.7 (1H, v1/2=50 Hz), −52.7 (1H, v1/2=450 Hz), −72.8 (v1/2=500 Hz). NMR (360 MHz, dmso-d6, 373 K): δ 18.49 (6H, br s, 4′- or 5′-pzH, v1/2=85 Hz), 17.00 (6H, br s, 3,5-pyH, v1/2=65 Hz), 7.88 (6H, br s, 4′- or 5′-pzH, v1/2=80 Hz), 4.18 (3H, br s, 4-pyH, v1/2=30 Hz), −4.25 (2H, br s, BH, v1/2=320 Hz). […] Fc/Fc^+); Co(NO3)2 under the same conditions: E1/2 (ox)=+1.8 V (vs. Fc/Fc^+). μeff=4.7 BM (Evans' method). A mononuclear 1:1 complex [9a]of cage [4a] with Co^2+ has been characterized by X-ray crystallography. A Co(OH2)3^2+ unit is bound up in the tris(pyrazolyl) cap.
A blue-green powder was obtained from reaction of Cu(NO3)2(H2O)2.5 with [4a] in a 1:1 ratio. The ^1H NMR spectrum of this product is very similar to that of [11c′], obtained as one product in the reaction of Cu(O3SCF3)2 with [4a] in 3:1 ratio. […]

Data set [3] in a line: TGA (thermogravimetric analysis). As to conditions: [4a]·i-PrOH·2 H2O. The method, then:
Exemplary embodiments of the technology are illustrated by the following non-limiting Examples, in which the reactions were carried out under air or nitrogen as indicated using commercially available reagents as received unless otherwise specified. NMR spectra were recorded on Bruker AVANCE 300, 360 or 500 MHz instruments relative to residual solvent resonances (^1H, ^13C), an external reference (BF3·OEt2 for ^11B) or by indirect detection (^15N by HMBC, in ppm relative to NH3). Melting points were determined using an Omega Engineering Model 199 instrument and are uncorrected. Mass spectra were recorded on a Q-TOF II instrument by MicroMass using electrospray ionization. TGA were recorded between room temperature and 600° C. Elemental analysis for C, H and N were obtained by Canadian Microanalytical Services, Delta, B.C., Canada or Guelph Chemical Laboratories Ltd., Guelph, ON, Canada.

Consider `CC1(C)c2ccn(n2)Bn2ccc(n2)C(C)(C)c2ccn(n2)Bn2ccc1n2` [8′a, Bis(2,2-dipyrazolylpropane)diborate dipotassium salt], for which the “solubility in diethyl ether” value in data set [1] (diethyl ether, relative to the corresponding cage [7′a]) was “notably less soluble”.
In the case of “Tris(2,6-pyrazolyl-4-(4′-methoxybenzylthiolato)pyridino)diborate dipotassium salt [4t]”, the solubility in benzene result in data set [1] (solvent benzene) is recorded as “somewhat soluble”.
For `c1cc2cc(c1)-c1ncn(n1)B1n3cnc(n3)-c3cccc(c3)-c3ncn(n3)B(n3cnc-2n3)n2cnc(n2)-c2cccc(c2)-c2ncn1n2` [7a, tris(2,6-di(1′,2′,4′-triazol-3′ yl)benzene)diborate dipotassium salt], in data set [1] (dmso-d6, mild heating), the “solubility in dmso-d6” value is listed as “dissolved with mild heating in dmso-d6”. Besides, the solubility in acetone result in data set [1] is reported as “would not dissolve in acetone”.
On to `O=[N+]([O-])[O-].O=[N+]([O-])[O-].[Cu+2]` [Cu(NO3)2], for which the “E1/2 (red)” value in data set [2] is reported as −0.8 V (vs. Fc/Fc^+).
Regarding `O=[N+]([O-])[O-].O=[N+]([O-])[O-].[Co+2]` [Co(NO3)2], the “E1/2 (ox)” value in data set [2] (250 mV s^−1) is on record as “+1.8 V (vs. Fc/Fc^+)”.
Regarding `c1cc2nc(c1)-c1ccn(n1)B1n3ccc(n3)-c3cccc(n3)-c3ccn(n3)B(n3ccc-2n3)n2ccc(n2)-c2cccc(n2)-c2ccn1n2` [4a, Tris(2,6-pyrazolylpyridino)diborate dipotassium salt], in data set [3], the “onset of decomposition (TGA)” value is above 450 °C. Besides, the solubility in halocarbons result in data set [1] (CH2Cl2 and CHCl3) is “slightly soluble”. Also, the solubility in alcohols result in data set [1] (MeOH, EtOH, i-PrOH) is on record as “slightly soluble”. The “solubility in pure water” value in data set [1] (pure water) is listed as “very limited solubility”. In data set [1] (solvent DMSO), the “solubility in DMSO” value is listed as “very soluble”. In data set [1] (solvent THF), the “solubility in THF” value is listed as “moderately soluble”. The solubility in acetone entry in data set [1] is recorded as “very soluble”. Also, the “solubility in acidic water” value in data set [1] (solvent acidic water) is recorded as “moderately soluble”. Further, the “solubility in ethyl acetate” value in data set [1] (solvent ethyl acetate) is recorded as “moderately soluble”.
